In one test the test system is PC12 cells. The test is described as follows: Neurite differentiation assay in PC12 cells. The class given is cell-based, rat. As to the method:
The PC12 cells were maintained in HAM's medium at 37° C., supplemented with 2.5% of fetal bovine serum, 15% of horse serum and penicillin/streptomycine. The neurite differentiation assays were conducted using 24-well plates treated with collagen in HAM's medium supplemented with 0.5% of fetal bovine serum and penicillin/streptomycine. NGF (100 ng/ml) or MTA at different concentrations (25 μM, 100 μM and 2 mM) were added to the cultures and, after four days, the percentage of cells with neurites longer than twice cell body. In each experiment a minimum of 300 cells were randomly counted.

Test [1] deals with Corticospinal tract-YFP mice with chronic EAE. The test is described as follows: Chronic EAE (model of progressive multiple sclerosis), clinical score and axonal density. It counts as in vivo, mice (C57B6 background). From the text: Chronic EAE was induced in Corticospinal tract-YFP mice (C57B6 background; see Bareyre et al., Nat Med. 2005 December; 11(12):1355-60) immunized with MOG. The fluorescence labelling of motor axons, allows an accurate quantification of axonal damage during EAE.
1. Align spinal cords of all animals and cut out the following pieces of the spinal cord at the same level in all animals: a) a piece of the cervical spinal cord (about 1 cm in length) starting around at the upper cervical level around C1/2 (this will allow you to determine the number of CST fibers that enter the spinal cord); b) a piece of the lumbar spinal cord (about 1 cm in length) starting around the mid-lumbar level L2/3 (this will allow you to determine the number of fibers that reach the lumbar spinal cord).
5. Mount the tissue and analyze the sections using confocal microscopy—use a high-resolution objectives e.g. a 60× oil objective and take a single image plan covering the entire corticospinal tract.
6. Then simple count the number of dots (=number of fibers)—we usually do this blinded on 3-5 sections and then calculate the average for the CST as the CST—especially in the cervical spinal cord which contains many fibers it might be easier to estimate the total number of cervical CST fibers based on counts of several CST areas with a defined size. […]

Test [2] has as its system RN22 cells. The test is described as follows: Hydrogen peroxide stress in RN22 cells, ROS levels. The class given is cell-based, rat. As to conditions: hydrogen peroxide 100 μM, different time periods. As to the method:
(§1) RN22 cells were maintained at 37° C. in DMEM medium supplemented with 10% of fetal bovine serum and penicillin/streptomycine. The assays against stress with copper sulphate were conducted using 24-well plates in DMEM medium without serum. After allowing cell adherence for three days, NGF (100 ng/ml) or MTA was added to different concentrations half an hour before the copper sulphate (150 μM). After twenty-four hours, cell viability was quantified by MTT assay and ROS production was quantified by fluorescence. Assays against stress with hydrogen peroxide were conducted in the same way as the foregoing, using 100 μM hydrogen peroxide as a stress-producing agent.
(§2) We determined the quantity of ROS produced by the cells after stress with and without treatment. 2′,7′- dichlorodihydrofluorescein (DCFH) is generally used to measure oxidative stress in cells. The cells were incubated with DCFH-DA (10 μM) at 37° C. for thirty minutes. After incubation, the cells were washed twice with PBS and lysed by adding 10 mM Tris-HCL buffer containing 0.5% of Tween 20. The homogenates were then centrifuged at 10,000 g for ten minutes to separate the cell residue and […] fluorescence in the supernatant was measured using a fluorometer (excitation wavelength 492-495 nm, emission wavelength 517-527 nm) (Invitrogen).

Test [3] relates to RN22 cells. The test is described as follows: Copper sulphate stress in RN22 cells, ROS levels. It counts as cell-based, rat. As to conditions: copper sulphate 150 μM, different time periods. Here is the method: as §1, §2

On to `CSC[C@H]1O[C@@H](n2cnc3c(N)ncnc32)[C@H](O)[C@@H]1O` [MTA, 5′-methylthioadenosine], for which the “neurite development at the highest concentration tested” value in the test with PC12 cells (MTA 5 mM) was “does not affect neurite development”. Also, in the test with PC12 cells (four days), the “most optimal MTA concentration for formation of new neurites” value was determined as 1 mM. The “neurite differentiation (formation of new processes)” value in the test on PC12 cells (four days, concentration dependent) is listed as “develop new processes”. In test [1] (MTA 96 μMol/Kg i.p. daily from first day with EAE score of 2 or higher), the “clinical symptoms (EAE clinical score) versus placebo” value is “amelioration of the clinical symptoms”. Further, the “axonal density in lumbar and cervical spinal cord versus placebo” value in test [1] (MTA 96 μMol/Kg i.p. daily, chronic phase) is on record as “significantly higher axonal density”. For the same compound, the “ROS production under hydrogen peroxide stress” value in the test on RN22 cells [2] is “capable of reducing ROS production”. In addition, the “ROS production under copper sulphate stress” value in the test with RN22 cells [3] was “reduce ROS production”.

These data come from patent US20120083464A1, “NEUROPROTECTIVE PROPERTIES OF 5'-METHYLTHIOADENOSINE” (priority 2009, published 2012).
